Results taken from US20210212984A1, “FORMULATION FOR PAIN MANAGEMENT” (Zyus Life Sciences Inc., priority 2019, published 2021).
Several values for one entry are separate records, joined by “and”; a condition that tells them apart may be missing. Equal values may be shown once. Read-outs that look alike come from different tables or passages of the source.

What was measured:
human TRPA1 channel = molecular target: T1, human TRPA1 channel (Homo sapiens, UniProt O75762); assay: ScreenPatch assay (IonWorks Barracuda), agonist mode, TRPA1 expressed in CHO cells; type: cell-based; conditions: for EC50: read-out: EC50, CBC CRC
T1 construct: expressed in transfected cells; host or cells: CHO cells
Experimental: Formulations for pain management were tested for effects on the human TRPA1 channel, expressed in mammalian cells using the ScreenPatch® assay (IonWorks™ Barracuda Based Assay): agonist mode. The data presented confirming a synergistic effect of cannabinoids (CBD:THC:CBC) at the ion channel level.
Test Articles. The test articles, also referenced herein as test formulations, were evaluated in an 8-point concentration-response format (4 replicate wells/concentration, Table 4A & Table 4B). The test articles were dissolved and initially serially diluted in dimethyl sulfoxide (DMSO). The final dilution was made in extracellular solution. The final DMSO concentration was 0.6% (v/v).
Positive Control Treatment Groups. Stock solutions of positive control articles were prepared in batches, aliquoted for individual use. The positive control test solutions were prepared fresh on the day of experiment. The final DMSO concentration was 0.6% (v/v). […] Reference antagonist, ruthenium red (0-10 μM), was used for both TRPA1.
Test System: TRPA1 ionotropic receptors expressed in CHO cells.
Test Platform: Ionworks Barracuda™
Electrophysiological Procedures. Intracellular solution (mM): 50 mM CsCl, 90 mM CsF, 2 mM MgCl2, 5 mM EGTA, 10 mM HEPES. Adjusted to pH 7.2 with CsOH. This solution was prepared in batches and stored at room temperature. In preparation for a recording session, the intracellular solution was loaded into the intracellular compartment of the PPC planar electrode.
Extracellular solution, HB-PS (composition in mM): NaCl, 137; KCl, 1.0; MgCl2, 2; CaCl2, 2; HEPES, 10; Glucose, 10; pH adjusted to 7.4 with NaOH (refrigerated until use). Holding potential: −70 mV, potential during agonist/antagonist application: −70 mV.
Recording procedure. Extracellular buffer was loaded into the PPC plate wells (11 μL per well). Cell suspension was pipetted into the wells (9 μL per well) of the PPC planar electrode.
Whole-cell recording configuration was established via patch perforation with membrane currents recorded by on-board patch clamp amplifiers.
Single application (scan) protocol was used.
Test Article Administration. The application consisted of the addition of 20 μL of 2× concentrated test article solution at 10 μL/s (2 second total application time).
TRPA1 Positive Control—Agonist.
Positive Control—Antagonist. 0-10 μM Ruthenium Red (8 concentrations, 4 replicates, half log scale).

CB2 receptors = CB2 receptors (Homo sapiens, UniProt P34972); conditions: Shinjyo N 2013; cited from earlier work
CB1 receptors = CB1 receptors (Homo sapiens, UniProt P21554); conditions: Shinjyo N 2013; cited from earlier work
[1] = CHO, CRC of the article alone, % of 3000 μM Mustard Oil, read-out: EMAX
[2] = CRC of the article alone, % of 3000 μM Mustard Oil
[3] = in presence of 0.1 μM CBD + THC
[4] = in presence of 0.3 μM CBD + THC

T1 sequence (O75762 whole entry): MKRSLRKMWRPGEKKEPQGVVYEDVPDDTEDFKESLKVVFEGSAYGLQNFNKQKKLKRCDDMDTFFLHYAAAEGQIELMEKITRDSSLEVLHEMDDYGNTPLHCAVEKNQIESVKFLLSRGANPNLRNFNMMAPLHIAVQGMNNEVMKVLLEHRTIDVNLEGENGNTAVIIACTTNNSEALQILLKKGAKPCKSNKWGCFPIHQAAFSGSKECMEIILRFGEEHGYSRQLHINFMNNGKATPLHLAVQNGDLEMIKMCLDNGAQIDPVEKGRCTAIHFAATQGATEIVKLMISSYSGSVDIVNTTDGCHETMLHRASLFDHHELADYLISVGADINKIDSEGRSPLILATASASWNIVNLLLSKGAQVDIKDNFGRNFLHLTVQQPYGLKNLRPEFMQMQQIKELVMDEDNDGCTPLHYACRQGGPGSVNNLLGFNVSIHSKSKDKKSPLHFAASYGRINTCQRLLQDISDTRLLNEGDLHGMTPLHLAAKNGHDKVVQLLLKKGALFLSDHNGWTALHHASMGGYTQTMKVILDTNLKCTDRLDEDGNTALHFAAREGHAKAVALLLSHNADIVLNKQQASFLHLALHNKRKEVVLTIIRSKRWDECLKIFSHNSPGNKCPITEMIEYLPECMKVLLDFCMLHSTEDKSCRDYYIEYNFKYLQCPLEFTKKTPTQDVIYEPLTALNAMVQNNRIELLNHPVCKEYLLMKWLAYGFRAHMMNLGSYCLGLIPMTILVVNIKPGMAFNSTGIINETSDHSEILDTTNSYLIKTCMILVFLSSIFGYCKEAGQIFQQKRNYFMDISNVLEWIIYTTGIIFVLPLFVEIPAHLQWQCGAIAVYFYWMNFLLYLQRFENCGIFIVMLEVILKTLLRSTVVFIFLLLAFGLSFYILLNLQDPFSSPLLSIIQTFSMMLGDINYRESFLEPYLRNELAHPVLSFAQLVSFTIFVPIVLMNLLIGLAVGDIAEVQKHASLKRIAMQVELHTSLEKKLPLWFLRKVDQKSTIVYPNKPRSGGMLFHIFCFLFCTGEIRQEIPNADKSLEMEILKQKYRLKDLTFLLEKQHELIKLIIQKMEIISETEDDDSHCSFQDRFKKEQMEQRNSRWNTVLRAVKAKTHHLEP
Sequence of CB1 receptors (P21554 whole entry): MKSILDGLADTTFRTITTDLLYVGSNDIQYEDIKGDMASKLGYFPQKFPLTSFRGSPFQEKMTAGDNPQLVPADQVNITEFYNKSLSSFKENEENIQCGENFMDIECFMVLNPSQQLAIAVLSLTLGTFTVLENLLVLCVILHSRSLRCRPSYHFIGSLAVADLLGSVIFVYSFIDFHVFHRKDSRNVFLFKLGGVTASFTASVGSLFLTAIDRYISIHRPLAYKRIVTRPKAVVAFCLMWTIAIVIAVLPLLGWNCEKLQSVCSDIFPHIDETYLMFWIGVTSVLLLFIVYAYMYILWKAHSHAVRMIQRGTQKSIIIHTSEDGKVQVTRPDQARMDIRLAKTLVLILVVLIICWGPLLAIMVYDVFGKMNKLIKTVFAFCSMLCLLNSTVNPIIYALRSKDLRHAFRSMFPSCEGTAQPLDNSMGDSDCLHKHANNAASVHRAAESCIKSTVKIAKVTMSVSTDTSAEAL
Sequence of CB2 receptors (P34972 whole entry): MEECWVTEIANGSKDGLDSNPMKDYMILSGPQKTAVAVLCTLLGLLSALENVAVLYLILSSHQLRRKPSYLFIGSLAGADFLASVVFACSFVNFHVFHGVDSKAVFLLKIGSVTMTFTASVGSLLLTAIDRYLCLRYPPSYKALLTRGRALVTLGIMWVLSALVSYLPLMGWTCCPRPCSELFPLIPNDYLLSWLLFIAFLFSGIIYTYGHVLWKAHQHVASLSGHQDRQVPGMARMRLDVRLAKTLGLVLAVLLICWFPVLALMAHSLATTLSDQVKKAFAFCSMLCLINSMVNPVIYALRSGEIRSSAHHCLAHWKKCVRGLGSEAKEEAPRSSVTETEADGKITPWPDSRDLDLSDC

For CCCCCc1cc(O)c2c(c1)OC(C)(CCC=C(C)C)C=C2 (stereo not shown) [CBC, cannabichromene], the “Agonist activity at TRPA1 receptors (in words)” value (human TRPA1 channel) was “weak partial agonist activity”, the Emax (human TRPA1 channel; [1]) was ~10% and the Emax (human TRPA1 channel; CHO, at near threshold activation by CBD+THC mixture (1 μM each), n=4, read-out: Efficacy (EMAX) of CBC) was 16.2 ± 1.3%. The Emax (human TRPA1 channel; CHO, in presence of 0.1 μM CBD + THC, % of 3000 μM Mustard Oil, read-out: EMAX, CBC CRC) was 10.1%, the Emax (human TRPA1 channel; CHO, in presence of 0.3 μM CBD + THC, % of 3000 μM Mustard Oil, read-out: EMAX, CBC CRC) was 13.1% and the Emax (human TRPA1 channel; CHO, in presence of 1 μM CBD + THC, % of 3000 μM Mustard Oil, read-out: EMAX, CBC CRC) was 17.1%. For the same molecule, the Emax (human TRPA1 channel; CHO, in presence of 3 μM CBD + THC, % of 3000 μM Mustard Oil, read-out: EMAX, CBC CRC) was 30.7%, the Emax (human TRPA1 channel; CHO, in presence of 10 μM CBD + THC, % of 3000 μM Mustard Oil, read-out: EMAX, CBC CRC) was 53.2% and the Emax (human TRPA1 channel; CHO, in presence of 30 μM CBD + THC, % of 3000 μM Mustard Oil, read-out: EMAX, CBC CRC) was 60.8%. The Emax (human TRPA1 channel; CHO, in presence of 100 μM CBD + THC, % of 3000 μM Mustard Oil, read-out: EMAX, CBC CRC) was 58.5%, the Emax (human TRPA1 channel; CHO, in presence of 300 μM CBD + THC, % of 3000 μM Mustard Oil, read-out: EMAX, CBC CRC) was 37.2% and the “Hill Slope” value (human TRPA1 channel; CRC of the article alone) was −0.96. The EMIN (human TRPA1 channel; [2]) was 0.86%, the Emax (human TRPA1 channel; [2]) was 10.3±1.9% and 10.31% and the “Efficacy (EMAX) of CBC” value (human TRPA1 channel; at near threshold activation by CBD+THC mixture (1 μM each), n=4) was 16±1%. The “Hill Slope, CBC CRC” value (human TRPA1 channel; [3]) was −3.56, the “EMIN, CBC CRC” value (human TRPA1 channel; in presence of 0.1 μM CBD + THC, % of 3000 μM Mustard Oil) was 0.92% and the EC50 (human TRPA1 channel; [3]) was 54.5 µM. The “Hill Slope, CBC CRC” value (human TRPA1 channel; [4]) was −1.00, the “EMIN, CBC CRC” value (human TRPA1 channel; in presence of 0.3 μM CBD + THC, % of 3000 μM Mustard Oil) was 1.42% and the EC50 (human TRPA1 channel; [4]) was 64.1 µM. The “Hill Slope, CBC CRC” value (human TRPA1 channel; in presence of 1 μM CBD + THC) was −1.00, the “EMIN, CBC CRC” value (human TRPA1 channel; in presence of 1 μM CBD + THC, % of 3000 μM Mustard Oil) was 2.40% and the EC50 (human TRPA1 channel; in presence of 1 μM CBD + THC) was 26 µM. The “EMIN, CBC CRC” value (human TRPA1 channel; in presence of 3 μM CBD + THC, % of 3000 μM Mustard Oil) was 15.03%, the “EMIN, CBC CRC” value (human TRPA1 channel; in presence of 10 μM CBD + THC, % of 3000 μM Mustard Oil) was 42.93% and the “EMIN, CBC CRC” value (human TRPA1 channel; in presence of 30 μM CBD + THC, % of 3000 μM Mustard Oil) was 47.70%. The “EMIN, CBC CRC” value (human TRPA1 channel; in presence of 100 μM CBD + THC, % of 3000 μM Mustard Oil) was 37.89%, the “EMIN, CBC CRC” value (human TRPA1 channel; in presence of 300 μM CBD + THC, % of 3000 μM Mustard Oil) was 29.27% and the Ki (CB2 receptors) was ~100 nM. The “concentrations at which it binds to CB1 receptors” value (CB1 receptors) was “higher than 1 micromolar”.

For CO [Methanol], the Emax (human TRPA1 channel; [1]) was 3.97% and the EMIN (human TRPA1 channel; [2]) was 0.95%.

For C=CCN=C=S [Mustard Oil, Allyl isothiocyanate, reference compound], the Emax at 3000 µM (human TRPA1 channel; CHO, CRC of the article alone, % of 3000 μM Mustard Oil) was 100%, the “Hill Slope” value (human TRPA1 channel; CRC of the article alone) was −1.91 and the EMIN (human TRPA1 channel; [2]) was 1.01%.

In the case of N.N.N.N.N.N.N.N.N.N.N.N.N.N.[Cl-].[Cl-].[Cl-].[Cl-].[Cl-].[Cl-].[O-2].[O-2].[Ru+3].[Ru+3].[Ru+4] [Ruthenium Red, reference compound], the “Hill Slope” value (human TRPA1 channel; CRC of the article alone) is reported as 0.85, the EMIN (human TRPA1 channel; [2]) is reported as 0.00% and the Emax (human TRPA1 channel; [2]) is reported as 47.50%. The IC50 (human TRPA1 channel; inhibition of TRPA1 receptors, CRC 0-10 μM (footnote: IC50 is shown)) was 1790 nM.
